Measured values published in the NIST ThermoML archive (doi:10.1016/j.fluid.2019.03.004).
Numbers after ± are expanded uncertainties.

Settings: Liquid, Transpiration method

## C/C=C/c1ccc(OC)cc1 [(E)-1-(4-methoxyphenyl)propene]
296.5 K
  vapor or sublimation pressure: 0.00567 ± 0.00041 kPa
300.4 K
  vapor or sublimation pressure: 0.00774 ± 0.00054 kPa
304.4 K
  vapor or sublimation pressure: 0.0112 ± 0.00076 kPa
308.4 K
  vapor or sublimation pressure: 0.01507 ± 0.00099 kPa
312.3 K
  vapor or sublimation pressure: 0.02056 ± 0.0013 kPa
313.2 K
  vapor or sublimation pressure: 0.02178 ± 0.0014 kPa
316.4 K
  vapor or sublimation pressure: 0.02753 ± 0.0018 kPa
318.5 K
  vapor or sublimation pressure: 0.03262 ± 0.0021 kPa
321.4 K
  vapor or sublimation pressure: 0.04178 ± 0.0027 kPa
323.4 K
  vapor or sublimation pressure: 0.04533 ± 0.0029 kPa
326.4 K
  vapor or sublimation pressure: 0.05539 ± 0.0035 kPa
328.4 K
  vapor or sublimation pressure: 0.06574 ± 0.0042 kPa
331.5 K
  vapor or sublimation pressure: 0.08089 ± 0.0051 kPa
333.4 K
  vapor or sublimation pressure: 0.09361 ± 0.0059 kPa

## C/C=C/c1ccc(O)c(OC)c1 [2-methoxy-4-(1E)-1-propen-1-yl-phenol]
313.2 K
  vapor or sublimation pressure: 0.00241 ± 0.00017 kPa
315.2 K
  vapor or sublimation pressure: 0.00289 ± 0.0002 kPa
316.2 K
  vapor or sublimation pressure: 0.00313 ± 0.0002 kPa
318.2 K
  vapor or sublimation pressure: 0.00371 ± 0.00025 kPa
320.3 K
  vapor or sublimation pressure: 0.00449 ± 0.0003 kPa
323.2 K
  vapor or sublimation pressure: 0.00561 ± 0.0004 kPa
325.2 K
  vapor or sublimation pressure: 0.00657 ± 0.00046 kPa
328.1 K
  vapor or sublimation pressure: 0.00838 ± 0.00056 kPa
330.2 K
  vapor or sublimation pressure: 0.00975 ± 0.00066 kPa
333.2 K
  vapor or sublimation pressure: 0.01216 ± 0.00081 kPa
336.3 K
  vapor or sublimation pressure: 0.01528 ± 0.001 kPa
338.2 K
  vapor or sublimation pressure: 0.01783 ± 0.0012 kPa
340.2 K
  vapor or sublimation pressure: 0.02046 ± 0.0013 kPa
343.2 K
  vapor or sublimation pressure: 0.02507 ± 0.0016 kPa
345.1 K
  vapor or sublimation pressure: 0.02835 ± 0.0018 kPa
348.2 K
  vapor or sublimation pressure: 0.03558 ± 0.0023 kPa
350.1 K
  vapor or sublimation pressure: 0.04019 ± 0.0026 kPa
353.1 K
  vapor or sublimation pressure: 0.05109 ± 0.0033 kPa
356.1 K
  vapor or sublimation pressure: 0.06297 ± 0.004 kPa
358.1 K
  vapor or sublimation pressure: 0.07097 ± 0.0045 kPa

## C=CCc1ccc(O)c(OC)c1 [2-hydroxy-5-allylanisole]
281.1 K
  vapor or sublimation pressure: 0.0003 ± 2e-05 kPa
283.7 K
  vapor or sublimation pressure: 0.00039 ± 3e-05 kPa
289 K
  vapor or sublimation pressure: 0.00066 ± 5e-05 kPa
293.9 K
  vapor or sublimation pressure: 0.00111 ± 8e-05 kPa
298.9 K
  vapor or sublimation pressure: 0.00179 ± 0.00012 kPa
303.7 K
  vapor or sublimation pressure: 0.00287 ± 0.0002 kPa
308.7 K
  vapor or sublimation pressure: 0.00447 ± 0.0003 kPa
313.7 K
  vapor or sublimation pressure: 0.00709 ± 0.00049 kPa
318.9 K
  vapor or sublimation pressure: 0.01038 ± 0.00069 kPa
323.6 K
  vapor or sublimation pressure: 0.01507 ± 0.00099 kPa
328.6 K
  vapor or sublimation pressure: 0.02241 ± 0.0015 kPa
333.6 K
  vapor or sublimation pressure: 0.03329 ± 0.0022 kPa
338.5 K
  vapor or sublimation pressure: 0.04891 ± 0.0031 kPa
343.5 K
  vapor or sublimation pressure: 0.06869 ± 0.0043 kPa

## C=CCc1ccc(OC)cc1 [1-allyl-4-methoxybenzene]
279.1 K
  vapor or sublimation pressure: 0.00378 ± 0.00025 kPa
284.1 K
  vapor or sublimation pressure: 0.00583 ± 0.00041 kPa
288.9 K
  vapor or sublimation pressure: 0.00912 ± 0.00062 kPa
293.8 K
  vapor or sublimation pressure: 0.01395 ± 0.00092 kPa
298.8 K
  vapor or sublimation pressure: 0.02153 ± 0.0014 kPa
303.7 K
  vapor or sublimation pressure: 0.03168 ± 0.002 kPa
308.8 K
  vapor or sublimation pressure: 0.04509 ± 0.0029 kPa
313.7 K
  vapor or sublimation pressure: 0.06571 ± 0.0042 kPa
318.2 K
  vapor or sublimation pressure: 0.09199 ± 0.0058 kPa
323.2 K
  vapor or sublimation pressure: 0.1278 ± 0.008 kPa
